Earlier results on 5 compounds are cited in patent US6534088B2, “Fibrate-statin combinations with reduced fed-fasted effects” (SkyePharma Canada Inc., priority 2001, dated 2003).

SMILES strings stand for the structures.

Assay in data set [1]: not given
The source holds these as a separate data set.

Regarding `COCc1c(C(C)C)nc(C(C)C)c(/C=C/[C@@H](O)C[C@@H](O)CC(=O)O)c1-c1ccc(F)cc1` [Cerivastatin], the solubility in water entry is on record as “soluble in water”. Further, in data set [1] (oral administration), the “effect of food on absorption” value was “not sensitive to a food effect”.
Turning to `CC(C)n1c(/C=C/C(O)CC(O)CC(=O)O)c(-c2ccc(F)cc2)c2ccccc21` (centres unmarked) [Fluvastatin], the solubility in water entry is “soluble in water”. Also, in data set [1] (oral administration), the “time to peak concentrations” value is recorded as “less than 1 hour”.
In the case of `CC[C@H](C)C(=O)O[C@H]1C[C@@H](C)C=C2C=C[C@H](C)[C@H](CC[C@@H]3C[C@@H](O)CC(=O)O3)[C@H]21` [Lovastatin], the solubility in water result was “insoluble in water”.
Regarding `CC[C@H](C)C(=O)O[C@H]1C[C@H](O)C=C2C=C[C@H](C)[C@H](CC[C@@H](O)C[C@@H](O)CC(=O)O)[C@H]21` [Pravastatin], the “solubility in methanol and water” value is on record as over 300 mg/mL. For the same compound, the “partition coefficient (octanol/water)” value (pH of 7.0) was 0.59.
For the compound `CC(C)(Oc1ccc(C(=O)c2ccc(Cl)cc2)cc1)C(=O)O` [fenofibric acid], the elimination half-life result in data set [1] (metabolite in blood or plasma) is “approximately twenty”.
